Experiment [1] concerns the target human GLP-1 receptor (hGLP-1R) (Homo sapiens, UniProt P43220). Briefly: cAMP production (HTRF) in CHO cells expressing hGLP-1R. In kind it is cell-based. Set-up: expressed in transfected cells. To be noted: for EC50: Table 6, peptides modified at position 17, cAMP in CHO hGLP-1R cells, geometric mean, read-out: hGLP-1R EC50; for % Relative Potency Ratio: Table 6, % GLP-1R activity relative to GLP-1 / % GlucR activity relative to glucagon. An outline of the steps:
(§1)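 Potency values represent EC50 from 4-parameter logistic curves of HTRF % Delta F signal. Receptor-expressing CHO cells (hGCGR 2×10^5 cells/mL, hGLP-1R 1×10^5 cells/mL) were exposed for 30 min at room temperature before two-step cAMP detection.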
For orientation: Changes in cAMP serve as a functional read-out for many G protein-coupled receptors.

Experiment [2] concerns the target human glucagon receptor (hGCGR) (Homo sapiens, UniProt P47871). Briefly: cAMP production (HTRF) in CHO cells expressing hGCGR. The format is cell-based. Set-up: expressed in transfected cells. Particulars: Table 6, peptides modified at position 17; cAMP in CHO hGCGR cells; geometric mean; read-out: hGluc-R EC50. An outline of the steps: as §1

Starred links: 1 amine or outer side, 2 acyl side, 3 side chain; linkers in the order of their positions; H or OH if unused. Non-standard residues stand in square brackets, D forms with d. Residues, ends and D or L forms follow the SMILES beside them. Groups on a side chain read outwards from the residue. *: point of attachment. C20 diacid = O=C(O)CCCCCCCCCCCCCCCCCCC(=O)*; C18 diacid = O=C(O)CCCCCCCCCCCCCCCCC(=O)*; γGlu = O=C(O)[C@H](CCC(=O)[*:2])N[*:1]; αMeF = C[C@](N)(Cc1ccccc1)C(=O)O; AEEA = NCCOCCOCC(=O)O; Aib = CC(C)(N)C(=O)O

human glucagon receptor (hGCGR), sequence (P47871 26-477): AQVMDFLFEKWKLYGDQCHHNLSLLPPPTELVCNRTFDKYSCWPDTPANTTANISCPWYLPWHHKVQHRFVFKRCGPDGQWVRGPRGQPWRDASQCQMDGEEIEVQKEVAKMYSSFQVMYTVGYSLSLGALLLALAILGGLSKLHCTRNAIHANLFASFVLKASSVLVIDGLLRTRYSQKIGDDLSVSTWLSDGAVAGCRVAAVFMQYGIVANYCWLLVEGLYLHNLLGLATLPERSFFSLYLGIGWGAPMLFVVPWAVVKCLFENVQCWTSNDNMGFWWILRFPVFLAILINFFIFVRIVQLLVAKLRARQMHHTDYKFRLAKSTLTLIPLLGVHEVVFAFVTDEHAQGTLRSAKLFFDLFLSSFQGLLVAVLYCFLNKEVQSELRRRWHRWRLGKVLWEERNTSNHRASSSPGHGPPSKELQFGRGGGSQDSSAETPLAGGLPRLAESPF
human GLP-1 receptor (hGLP-1R), sequence (P43220 24-463): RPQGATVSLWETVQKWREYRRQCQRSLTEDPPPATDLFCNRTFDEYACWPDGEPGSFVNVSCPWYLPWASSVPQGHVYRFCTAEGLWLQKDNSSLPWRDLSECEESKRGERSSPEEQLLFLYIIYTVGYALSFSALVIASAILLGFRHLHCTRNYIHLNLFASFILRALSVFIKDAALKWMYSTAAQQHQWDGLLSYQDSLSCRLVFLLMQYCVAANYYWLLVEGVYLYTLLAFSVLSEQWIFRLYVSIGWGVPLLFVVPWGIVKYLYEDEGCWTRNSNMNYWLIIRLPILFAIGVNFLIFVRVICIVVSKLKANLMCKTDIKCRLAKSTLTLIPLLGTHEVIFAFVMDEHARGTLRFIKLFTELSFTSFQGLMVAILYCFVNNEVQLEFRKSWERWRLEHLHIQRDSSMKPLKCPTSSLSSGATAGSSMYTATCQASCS

`CC(C)C[C@H](NC(=O)[C@H](Cc1c[nH]c2ccccc12)NC(=O)[C@H](C)NC(=O)[C@@H](NC(=O)[C@H](Cc1ccccc1)NC(=O)[C@H](CC(=O)O)NC(=O)[C@H](CCC(N)=O)NC(=O)[C@H](C)NC(=O)[C@H](CCCNC(=N)N)NC(=O)[C@H](CCCCNC(=O)COCCOCCNC(=O)COCCOCCNC(=O)CC[C@H](NC(=O)CC[C@H](NC(=O)CCCCCCCCCCCCCCCCCCC(=O)O)C(=O)O)C(=O)O)NC(=O)[C@@H](NC(=O)[C@H](CC(=O)O)NC(=O)[C@H](CC(C)C)NC(=O)[C@](C)(Cc1ccccc1)NC(=O)[C@H](CCCCN)NC(=O)[C@H](CO)NC(=O)[C@@H](NC(=O)[C@H](CC(=O)O)NC(=O)[C@H](CO)NC(=O)[C@@H](NC(=O)[C@H](Cc1ccccc1)NC(=O)[C@@H](NC(=O)CNC(=O)[C@H](CCC(N)=O)NC(=O)C(C)(C)NC(=O)[C@@H](N)Cc1c[nH]cn1)[C@@H](C)O)[C@@H](C)O)C(C)C)[C@@H](C)O)C(C)C)C(=O)N[C@@H](CCC(=O)O)C(=O)N[C@@H](C)C(=O)NC(C)(C)C(=O)NCC(=O)O` [Peptide 418] (H-H[Aib]QGTFTSDVSK[αMeF]LDTK([AEEA-AEEA-γGlu-γGlu-C20 diacid])RAQDFVAWLEA[Aib]G-OH; N-terminus assumed): in experiment [1], the EC50 was determined as 0.0881 nM and the “% Relative Potency Ratio” value was determined as 5.0. For the same compound, the EC50 in experiment [2] turned out to be 0.222 nM.

As to `CC(C)C[C@H](NC(=O)[C@H](Cc1c[nH]c2ccccc12)NC(=O)[C@H](CCCNC(=N)N)NC(=O)[C@@H](NC(=O)[C@H](Cc1ccccc1)NC(=O)[C@H](CC(=O)O)NC(=O)[C@H](CCC(N)=O)NC(=O)[C@H](C)NC(=O)[C@H](CCCNC(=N)N)NC(=O)[C@H](CCCCNC(=O)COCCOCCNC(=O)COCCOCCNC(=O)CC[C@H](NC(=O)CCCCCCCCCCCCCCCCC(=O)O)C(=O)O)NC(=O)[C@@H](NC(=O)[C@H](CC(=O)O)NC(=O)[C@H](CC(C)C)NC(=O)[C@](C)(Cc1ccccc1)NC(=O)[C@H](CCCCN)NC(=O)[C@H](CO)NC(=O)[C@@H](NC(=O)[C@H](CC(=O)O)NC(=O)[C@H](CO)NC(=O)[C@@H](NC(=O)[C@H](Cc1ccccc1)NC(=O)[C@@H](NC(=O)CNC(=O)[C@H](CCC(N)=O)NC(=O)C(C)(C)NC(=O)[C@@H](N)Cc1c[nH]cn1)[C@@H](C)O)[C@@H](C)O)C(C)C)[C@@H](C)O)C(C)C)C(=O)N[C@@H](CCC(=O)O)C(=O)NC(C)(C)C(=O)N[C@@H](CCC(=O)O)C(=O)O` [Peptide 419] (H-H[Aib]QGTFTSDVSK[αMeF]LDTK([AEEA-AEEA-γGlu-C18 diacid])RAQDFVRWLE[Aib]E-OH; N-terminus assumed), the values for the EC50 in experiment [1] and in experiment [2] were 0.0969 nM and 0.264 nM, respectively. The “% Relative Potency Ratio” value in experiment [1] is 5.4.

Turning to `CC(C)C[C@H](NC(=O)[C@H](Cc1c[nH]c2ccccc12)NC(=O)[C@H](CCCNC(=N)N)NC(=O)[C@@H](NC(=O)[C@H](Cc1ccccc1)NC(=O)[C@H](CC(=O)O)NC(=O)[C@H](CCC(N)=O)NC(=O)[C@H](C)NC(=O)[C@H](CCCNC(=N)N)NC(=O)[C@H](CCCCNC(=O)COCCOCCNC(=O)COCCOCCNC(=O)CC[C@H](NC(=O)CCCCCCCCCCCCCCCCC(=O)O)C(=O)O)NC(=O)[C@H](CCCNC(=N)N)NC(=O)[C@H](CC(=O)O)NC(=O)[C@H](CC(C)C)NC(=O)[C@](C)(Cc1ccccc1)NC(=O)[C@H](CCCCN)NC(=O)[C@H](CO)NC(=O)[C@@H](NC(=O)[C@H](CC(=O)O)NC(=O)[C@H](CO)NC(=O)[C@@H](NC(=O)[C@H](Cc1ccccc1)NC(=O)[C@@H](NC(=O)CNC(=O)[C@H](CCC(N)=O)NC(=O)C(C)(C)NC(=O)[C@@H](N)Cc1c[nH]cn1)[C@@H](C)O)[C@@H](C)O)C(C)C)C(C)C)C(=O)N[C@@H](CC(C)C)C(=O)NC(C)(C)C(=O)N[C@H](C(=O)N[C@@H](CCC(=O)O)C(=O)O)[C@@H](C)O` [Peptide 421] (H-H[Aib]QGTFTSDVSK[αMeF]LDRK([AEEA-AEEA-γGlu-C18 diacid])RAQDFVRWLL[Aib]TE-OH; N-terminus assumed), the EC50 in experiment [1] amounted to 0.0873 nM; in experiment [2] it was 0.18 nM. Besides, the “% Relative Potency Ratio” value in experiment [1] stood at 4.1.

Consider `CC(C)C[C@H](NC(=O)[C@H](Cc1c[nH]c2ccccc12)NC(=O)[C@H](CCCNC(=N)N)NC(=O)[C@@H](NC(=O)[C@H](Cc1ccccc1)NC(=O)[C@H](CC(=O)O)NC(=O)[C@H](CCC(N)=O)NC(=O)[C@H](C)NC(=O)[C@H](CCCNC(=N)N)NC(=O)[C@H](CCCCNC(=O)COCCOCCNC(=O)COCCOCCNC(=O)CC[C@H](NC(=O)CCCCCCCCCCCCCCCCC(=O)O)C(=O)O)NC(=O)[C@H](CCCNC(=N)N)NC(=O)[C@H](CC(=O)O)NC(=O)[C@H](CC(C)C)NC(=O)[C@](C)(Cc1ccccc1)NC(=O)[C@H](CCCCN)NC(=O)[C@H](CO)NC(=O)[C@@H](NC(=O)[C@H](CC(=O)O)NC(=O)[C@H](CO)NC(=O)[C@@H](NC(=O)[C@H](Cc1ccccc1)NC(=O)[C@@H](NC(=O)CNC(=O)[C@H](CCC(N)=O)NC(=O)C(C)(C)NC(=O)[C@@H](N)Cc1c[nH]cn1)[C@@H](C)O)[C@@H](C)O)C(C)C)C(C)C)C(=O)N[C@@H](CC(C)C)C(=O)NC(C)(C)C(=O)N[C@H](C(=O)N[C@@H](CCC(=O)O)C(N)=O)[C@@H](C)O` [Peptide 422] (H-H[Aib]QGTFTSDVSK[αMeF]LDRK([AEEA-AEEA-γGlu-C18 diacid])RAQDFVRWLL[Aib]TE-NH2; N-terminus assumed), for which, in experiment [1], the EC50 was found to be 0.0276 nM and the “% Relative Potency Ratio” value stood at 8.9. In addition, in experiment [2], the EC50 came to 0.123 nM.

Turning to `CC(C)C[C@H](NC(=O)[C@H](Cc1c[nH]c2ccccc12)NC(=O)[C@H](CCCNC(=N)N)NC(=O)[C@@H](NC(=O)[C@H](Cc1ccccc1)NC(=O)[C@H](CC(=O)O)NC(=O)[C@H](CCC(N)=O)NC(=O)[C@H](C)NC(=O)[C@H](CCCNC(=N)N)NC(=O)[C@H](CCCCNC(=O)COCCOCCNC(=O)COCCOCCNC(=O)CC[C@H](NC(=O)CCCCCCCCCCCCCCCCC(=O)O)C(=O)O)NC(=O)[C@H](CCCCN)NC(=O)[C@H](CC(=O)O)NC(=O)[C@H](CC(C)C)NC(=O)[C@](C)(Cc1ccccc1)NC(=O)[C@H](CCCCN)NC(=O)[C@H](CO)NC(=O)[C@@H](NC(=O)[C@H](CC(=O)O)NC(=O)[C@H](CO)NC(=O)[C@@H](NC(=O)[C@H](Cc1ccccc1)NC(=O)[C@@H](NC(=O)CNC(=O)[C@H](CCC(N)=O)NC(=O)C(C)(C)NC(=O)[C@@H](N)Cc1c[nH]cn1)[C@@H](C)O)[C@@H](C)O)C(C)C)C(C)C)C(=O)N[C@@H](CCCCN)C(=O)NC(C)(C)C(=O)N[C@H](C(=O)N[C@@H](CCC(=O)O)C(=O)O)[C@@H](C)O` [Peptide 423] (H-H[Aib]QGTFTSDVSK[αMeF]LDKK([AEEA-AEEA-γGlu-C18 diacid])RAQDFVRWLK[Aib]TE-OH; N-terminus assumed), in experiment [1], the EC50 is 0.0261 nM and the “% Relative Potency Ratio” value is reported as 168.1. Further, the EC50 in experiment [2] came to 2.22 nM.

For `CC(C)C[C@H](NC(=O)[C@H](Cc1c[nH]c2ccccc12)NC(=O)[C@H](CCCNC(=N)N)NC(=O)[C@@H](NC(=O)[C@H](Cc1ccccc1)NC(=O)[C@H](CC(=O)O)NC(=O)[C@H](CCC(N)=O)NC(=O)[C@H](C)NC(=O)[C@H](CCCNC(=N)N)NC(=O)[C@H](CCCCNC(=O)COCCOCCNC(=O)COCCOCCNC(=O)CC[C@H](NC(=O)CCCCCCCCCCCCCCCCC(=O)O)C(=O)O)NC(=O)[C@H](CCCCN)NC(=O)[C@H](CC(=O)O)NC(=O)[C@H](CC(C)C)NC(=O)[C@](C)(Cc1ccccc1)NC(=O)[C@H](CCCCN)NC(=O)[C@H](CO)NC(=O)[C@@H](NC(=O)[C@H](CC(=O)O)NC(=O)[C@H](CO)NC(=O)[C@@H](NC(=O)[C@H](Cc1ccccc1)NC(=O)[C@@H](NC(=O)CNC(=O)[C@H](CCC(N)=O)NC(=O)C(C)(C)NC(=O)[C@@H](N)Cc1c[nH]cn1)[C@@H](C)O)[C@@H](C)O)C(C)C)C(C)C)C(=O)N[C@@H](CC(C)C)C(=O)NC(C)(C)C(=O)N[C@H](C(=O)N[C@@H](CCCCN)C(=O)O)[C@@H](C)O` [Peptide 424] (H-H[Aib]QGTFTSDVSK[αMeF]LDKK([AEEA-AEEA-γGlu-C18 diacid])RAQDFVRWLL[Aib]TK-OH; N-terminus assumed), in experiment [1], the EC50 is 0.0155 nM and the “% Relative Potency Ratio” value came to 16.5. Further, in experiment [2], the EC50 came out at 0.129 nM.

Regarding `CC(C)C[C@H](NC(=O)[C@H](Cc1c[nH]c2ccccc12)NC(=O)[C@H](CCCNC(=N)N)NC(=O)[C@@H](NC(=O)[C@H](Cc1ccccc1)NC(=O)[C@H](CC(=O)O)NC(=O)[C@H](CCC(N)=O)NC(=O)[C@H](C)NC(=O)[C@H](CCCNC(=N)N)NC(=O)[C@H](CCCCNC(=O)COCCOCCNC(=O)COCCOCCNC(=O)CC[C@H](NC(=O)CCCCCCCCCCCCCCCCC(=O)O)C(=O)O)NC(=O)[C@H](CCCCN)NC(=O)[C@H](CC(=O)O)NC(=O)[C@H](CC(C)C)NC(=O)[C@](C)(Cc1ccccc1)NC(=O)[C@H](CCCCN)NC(=O)[C@H](CO)NC(=O)[C@@H](NC(=O)[C@H](CC(=O)O)NC(=O)[C@H](CO)NC(=O)[C@@H](NC(=O)[C@H](Cc1ccccc1)NC(=O)[C@@H](NC(=O)CNC(=O)[C@H](CCC(N)=O)NC(=O)C(C)(C)NC(=O)[C@@H](N)Cc1c[nH]cn1)[C@@H](C)O)[C@@H](C)O)C(C)C)C(C)C)C(=O)N[C@@H](CCCCN)C(=O)N[C@@H](C)C(=O)NC(C)(C)C(=O)NCC(=O)O` [Peptide 425] (H-H[Aib]QGTFTSDVSK[αMeF]LDKK([AEEA-AEEA-γGlu-C18 diacid])RAQDFVRWLKA[Aib]G-OH; N-terminus assumed), in experiment [1], the EC50 came out at 0.0115 nM and the “% Relative Potency Ratio” value came to 142.3. For the same compound, in experiment [2], the EC50 was found to be 0.827 nM.

The term EC50 denotes the concentration at which the effect is half-maximal.

The record behind these values is patent US20250353891A1 (MEDIMMUNE LIMITED, priority 2022, published 2025).
